Measurements: publication PMC6197744, “Triazolo[4,5-d]pyrimidines as Validated General Control Nonderepressible 2 (GCN2) Protein Kinase Inhibitors Reduce Growth of Leukemia Cells” (Computational and Structural Biotechnology Journal, 2018)

Columns and labels:
Experiment in all cases: NCI-60 one-dose screen
Format in all cases: cell-based
HOP-62 = details: Homo sapiens; Non-Small Cell Lung HOP-62, 10 μM, 48 h; read-out: Percent growth inhibition
Procedure: (§1) Compounds 1 and 2 were submitted to the National Cancer Institute NCI-60 Tumor Cell Screening Program (NCI number 800,700 and 800,701, respectively) for evaluation against the 60 cell line NCI panel at a single dose of 10 μM. […] Leukemia and breast cancer cell lines comprised the only cancer groups that were uniformly sensitive to both 1 and 2, with the greatest sensitivity seen in the leukemia SR cell line.
(§2) Compounds 1 and 2 were submitted to the NCI for growth inhibition screening against its panel of 60 cancer cell lines. The NCI screening protocol has extensively been described [[53], [54], [55], [56]]. Briefly, cancerous cell lines were grown in RPMI 1640 medium containing 5% fetal bovine serum and 2 mM L-glutamine. Depending on the doubling time of each cell line, 5000–40,000 cells were seeded in 96-well plates for 24 h. Cells were then treated with compounds 1 or 2 at a concentration of 10 μM and incubated for 48 h at 37 °C in a humidified atmosphere containing 5% CO2. The cells were then fixed and stained with sulforhodamine B (SRB) to determine their viability. The data were analyzed using a program called COMPARE to determine the percent growth inhibition of each compound.

HCT-116 = details: Homo sapiens, HCT-116, 48 h, Colon HCT-116, 10 μM, read-out: Percent growth inhibition
Procedure: as §1, §2

SK-OV-3 = details: Homo sapiens, SK-OV-3, 48 h, Ovarian SK-OV-3, 10 μM, read-out: Percent growth inhibition
Procedure: as §1, §2

OVCAR-3 = details: Homo sapiens; Ovarian OVCAR-3, 10 μM, 48 h; read-out: Percent growth inhibition
Procedure: as §1, §2

UACC-257 = details: Homo sapiens; Melanoma UACC-257, 10 μM, 48 h; read-out: Percent growth inhibition
Procedure: as §1, §2

MCF7 = details: Homo sapiens; Breast MCF7, 10 μM, 48 h; read-out: Percent growth inhibition
Procedure: as §1, §2

NCI-H522 = details: Homo sapiens; Non-Small Cell Lung NCI-H522, 10 μM, 48 h; read-out: Percent growth inhibition
Procedure: as §1, §2

MDA-MB-435 = details: Homo sapiens; Melanoma MDA-MB-435, 10 μM, 48 h; read-out: Percent growth inhibition
Procedure: as §1, §2

TK-10 = details: Homo sapiens; Renal TK-10, 10 μM, 48 h; read-out: Percent growth inhibition
Procedure: as §1, §2

BT-549 = details: Homo sapiens; Breast BT-549, 10 μM, 48 h; read-out: Percent growth inhibition
Procedure: as §1, §2

SW-620 = details: Homo sapiens; Colon SW-620, 10 μM, 48 h; read-out: Percent growth inhibition
Procedure: as §1, §2

SNB-75 = details: Homo sapiens; CNS SNB-75, 10 μM, 48 h; read-out: Percent growth inhibition
Procedure: as §1, §2

SF-268 = details: Homo sapiens; CNS SF-268, 10 μM, 48 h; read-out: Percent growth inhibition
Procedure: as §1, §2

DU-145 = details: Homo sapiens; Prostate DU-145, 10 μM, 48 h; read-out: Percent growth inhibition
Procedure: as §1, §2

K-562 = details: Homo sapiens, K562; Leukemia K-562, 10 μM, 48 h; read-out: Percent growth inhibition
Procedure: as §1, §2

NCI-H23 = details: Homo sapiens; Non-Small Cell Lung NCI-H23, 10 μM, 48 h; read-out: Percent growth inhibition
Procedure: as §1, §2

EKVX = details: Homo sapiens, Non-Small Cell Lung EKVX, 48 h, read-out: Percent growth inhibition
Procedure: as §1, §2

HT29 = details: Homo sapiens, HT-29, 48 h, Colon HT29, 10 μM, read-out: Percent growth inhibition
Procedure: as §1, §2

MDA-MB-231 = details: Homo sapiens; Breast MDA-MB-231, 10 μM, 48 h; read-out: Percent growth inhibition
Procedure: as §1, §2

KM12 = details: Homo sapiens; Colon KM12, 10 μM, 48 h; read-out: Percent growth inhibition
Procedure: as §1, §2

ACHN = details: Homo sapiens, Renal ACHN, 48 h, read-out: Percent growth inhibition
Procedure: as §1, §2

COLO205 = details: Homo sapiens, COLO 205; Colon COLO205, 10 μM, 48 h; read-out: Percent growth inhibition
Procedure: as §1, §2

M14 = details: Homo sapiens; Melanoma M14, 10 μM, 48 h; read-out: Percent growth inhibition
Procedure: as §1, §2

PC-3 = details: Homo sapiens; Prostate PC-3, 10 μM, 48 h; read-out: Percent growth inhibition
Procedure: as §1, §2

SR = details: Homo sapiens, 48 h, Leukemia SR, read-out: Percent growth inhibition
Procedure: as §1, §2

OVCAR-8 = details: Homo sapiens; Ovarian OVCAR-8, 10 μM, 48 h; read-out: Percent growth inhibition
Procedure: as §1, §2

SF-539 = details: Homo sapiens; CNS SF-539, 10 μM, 48 h; read-out: Percent growth inhibition
Procedure: as §1, §2

SNB-19 = details: Homo sapiens; CNS SNB-19, 10 μM, 48 h; read-out: Percent growth inhibition
Procedure: as §1, §2

CCRF-CEM = details: Homo sapiens, Leukemia CCRF-CEM, 48 h, read-out: Percent growth inhibition
Procedure: as §1, §2

Structure (SMILES)	inhibition at 10 µM (HOP-62) [%]	inhibition at 10 µM (HCT-116) [%]	inhibition at 10 µM (SK-OV-3) [%]	inhibition at 10 µM (OVCAR-3) [%]	inhibition at 10 µM (UACC-257) [%]	inhibition at 10 µM (MCF7) [%]	inhibition at 10 µM (NCI-H522) [%]	inhibition at 10 µM (MDA-MB-435) [%]	inhibition at 10 µM (TK-10) [%]	inhibition at 10 µM (BT-549) [%]	inhibition at 10 µM (SW-620) [%]	inhibition at 10 µM (SNB-75) [%]	inhibition at 10 µM (SF-268) [%]	inhibition at 10 µM (DU-145) [%]	inhibition at 10 µM (K-562) [%]	inhibition at 10 µM (NCI-H23) [%]	inhibition at 10 µM (EKVX) [%]	inhibition at 10 µM (HT29) [%]	inhibition at 10 µM (MDA-MB-231) [%]	inhibition at 10 µM (KM12) [%]	also measured
CCn1cc(Nc2ncc3nnn(-c4ccc(C(=O)OC)cc4)c3n2)cn1 [Compound 1, Methyl 4-(5-((1-ethyl-1H-pyrazol-4-yl)amino)-3H-[1,2,3]triazolo[4,5-d]pyrimidin-3-yl)benzoate]	21.1	42.7	22	8.48	13.6	11.6	24.3	9.99	6.48	24.2	-5.07	23.4	0.6	-9.96	20.9	3.87	-4.33	47	0.42	7.33	inhibition at 10 µM (ACHN): 1.27%; inhibition at 10 µM (COLO205): 16.3%; inhibition at 10 µM (M14): 17%; inhibition at 10 µM (PC-3): 16.7%; inhibition at 10 µM (SR): 43.4%; inhibition at 10 µM (OVCAR-8): 13.8%; inhibition at 10 µM (SF-539): -9.47%; inhibition at 10 µM (SNB-19): -9.34%; inhibition at 10 µM (CCRF-CEM): 39.5%
CCOc1ccc(-n2nnc3cnc(Nc4cnn(CC)c4)nc32)cc1 [Compound 2, 3-(4-Ethoxyphenyl)-N-(1-ethyl-1H-pyrazol-4-yl)-3H-[1,2,3]triazolo[4,5-d]pyrimidin-5-amine]	15.7	43.7	46.3	6.71	21.3	24.2	31.8	20	1.47	16.2	-17.3	44.6	12.7	2.46	17.2	5.25	-5.32	39.7	7.57	25.9	inhibition at 10 µM (ACHN): 17.8%; inhibition at 10 µM (COLO205): 29.9%; inhibition at 10 µM (M14): 10.9%; inhibition at 10 µM (PC-3): 23.4%; inhibition at 10 µM (SR): 57.5%; inhibition at 10 µM (OVCAR-8): 21.2%; inhibition at 10 µM (SF-539): 32%; inhibition at 10 µM (SNB-19): -0.19%; inhibition at 10 µM (CCRF-CEM): 14%
